Target: human L3MBTL2 4-MBT-repeat domain (4MBT, residues 170–625) (Homo sapiens, UniProt Q969R5)
Experiment: Isothermal titration calorimetry
Type: binding
Settings: ITC, 25°C, pH 7.5, 200 mM NaCl; values in Supplementary Figure 3

Sequence of human L3MBTL2 4-MBT-repeat domain (4MBT, residues 170–625) (Q969R5 170-625): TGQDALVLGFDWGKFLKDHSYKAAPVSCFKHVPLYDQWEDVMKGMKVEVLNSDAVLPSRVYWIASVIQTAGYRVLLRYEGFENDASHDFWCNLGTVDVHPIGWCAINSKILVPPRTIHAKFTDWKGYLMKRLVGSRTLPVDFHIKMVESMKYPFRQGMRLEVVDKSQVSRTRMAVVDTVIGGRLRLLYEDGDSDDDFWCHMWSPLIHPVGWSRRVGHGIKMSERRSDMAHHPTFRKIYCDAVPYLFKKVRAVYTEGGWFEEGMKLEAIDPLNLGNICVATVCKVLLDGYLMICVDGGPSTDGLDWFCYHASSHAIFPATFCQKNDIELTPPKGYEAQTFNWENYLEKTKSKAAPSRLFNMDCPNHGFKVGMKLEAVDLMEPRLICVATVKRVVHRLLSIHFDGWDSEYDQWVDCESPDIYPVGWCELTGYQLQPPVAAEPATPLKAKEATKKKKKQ

SMILES: CNCCCC[C@H](N)C(=O)O [free mono-methylated lysine, mono-methylated lysine]
- Relative binding affinity (in words): binds mono- and di-methylated lysine centrally located in a peptide more tightly than free mono-methylated lysine

From article PMC2673432 (Nucleic Acids Research, 2009)
